According to US12331068B2, “Compositions and methods for inhibiting CD73” (Peloton Therapeutics, Inc., priority 2018, dated 2025):
Read-outs that look alike come from different tables or passages of the source.

Key:
Human CD73 = molecular target: T1, Human CD73 (Homo sapiens, UniProt P21589); test: CD73 Enzyme Assay (EnzChek PNP/MESG kinetic readout of AMP hydrolysis); format: biochemical
T1 construct: purchased R&D Systems; host or cells: CHO cells
T1 sequence (P21589 27-549): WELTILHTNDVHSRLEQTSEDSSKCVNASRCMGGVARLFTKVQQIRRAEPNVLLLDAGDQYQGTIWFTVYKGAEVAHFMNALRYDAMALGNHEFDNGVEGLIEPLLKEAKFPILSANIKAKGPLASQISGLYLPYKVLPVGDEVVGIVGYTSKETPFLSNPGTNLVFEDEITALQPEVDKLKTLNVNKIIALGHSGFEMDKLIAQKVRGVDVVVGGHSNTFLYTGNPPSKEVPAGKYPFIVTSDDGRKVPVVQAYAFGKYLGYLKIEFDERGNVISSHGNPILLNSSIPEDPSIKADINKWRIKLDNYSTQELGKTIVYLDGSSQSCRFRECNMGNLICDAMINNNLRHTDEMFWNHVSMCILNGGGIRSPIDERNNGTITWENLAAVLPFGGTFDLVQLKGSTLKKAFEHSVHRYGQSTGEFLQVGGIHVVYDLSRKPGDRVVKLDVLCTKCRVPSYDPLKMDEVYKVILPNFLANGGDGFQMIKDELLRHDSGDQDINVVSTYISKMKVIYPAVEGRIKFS
In short: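 Compounds tested as 15-point, 3-fold dilution series (300 μM to 0.0002 μM) in DMSO. Kinetic absorbance at 360 nm read every minute for 10–20 min, initial velocity taken from the linear portion.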

[1] = molecular target: T2, CD73 on U138 human neuroglioma cells (Homo sapiens, UniProt P21589); test: CD73 Cell-Based Assay (inorganic phosphate from AMP, malachite green); settings: AMP substrate, 2 hours at 37° C., read-out: CD73 Cell-Based assay IC50
T2 construct: U138 cells were obtained from ATCC and cultured in DMEM with 10% FBS; host or cells: U138 human neuroglioma cells
T2 sequence (P21589 27-549): T1 sequence (P21589 27-549)
In short: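 U138 cells, seeded the day before at 2500 per well, were washed and given AMP substrate (200 μM in the added mixture, before dilution into the buffer) together with compound. After 2 h at 37 °C in 5% CO2, inorganic phosphate in the supernatant was measured with malachite green.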

[2] = 0.25 nM hCD73, 25 μM AMP, read-out: CD73 Enzyme Assay IC50

| IC50 (Human CD73; [2]) [nM] | IC50 [1] [nM] | SMILES | IC50 (Human CD73) [nM] |
| --- | --- | --- | --- |
| < 10 | < 10 | C[C@@H](Nc1c(C#N)c(Cl)nc2c1cnn2[C@@H]1O[C@H](CS(=O)(=O)CP(=O)(O)O)[C@@H](O)[C@H]1O)c1cccc(F)c1 [Compound 182] |  |
| < 10 | < 10 | C[C@@H](Nc1c(C#N)c(Cl)nc2c1cnn2[C@@H]1O[C@H](CS(=O)(=O)CP(=O)(O)O)[C@@H](O)[C@H]1O)c1ccccc1F [Compound 183] |  |
| < 10 | < 10 | C[C@H](Nc1c(C#N)c(Cl)nc2c1cnn2[C@@H]1O[C@H](CS(=O)(=O)CP(=O)(O)O)[C@@H](O)[C@H]1O)c1ccc(F)cc1 [Compound 184, (((((2S,3S,4R,5R)-5-(6-chloro-5-cyano-4-(((S)-1-(4-fluorophenyl)ethyl)amino)-1H-pyrazolo[3,4-b]pyridin-1-yl)-3,4-dihydroxytetrahydrofuran-2-yl)methyl)sulfonyl)methyl)phosphonic acid] |  |
| < 10 | < 10 | C[C@H](Nc1c(C#N)c(Cl)nc2c1cnn2[C@@H]1O[C@H](CS(=O)(=O)CP(=O)(O)O)[C@@H](O)[C@H]1O)c1ccc(C#N)cc1 [Compound 185] |  |
| < 10 | < 10 | C[C@H](Nc1c(C#N)c(Cl)nc2c1ccn2[C@@H]1O[C@H](CS(=O)(=O)CP(=O)(O)O)[C@@H](O)[C@H]1O)c1cccc(C#N)c1 [Compound 190] |  |
| < 10 | < 10 | C[C@@H](Nc1c(C#N)c(Cl)nc2c1cnn2[C@@H]1O[C@H](CS(=O)(=O)CP(=O)(O)O)[C@@H](O)[C@H]1O)c1ccc(F)cc1 [Compound 191] |  |
| 10 to 100 | 10 to 100 | C[C@@H](Nc1c(C#N)c(Cl)nc2c1cnn2[C@@H]1O[C@H](CS(=O)(=O)CP(=O)(O)O)[C@@H](O)[C@H]1O)c1ccc(C#N)cc1 [Compound 192] |  |
| < 10 | < 10 | C[C@@H](Nc1c(C#N)c(Cl)nc2c1cnn2[C@@H]1O[C@H](CS(=O)(=O)CP(=O)(O)O)[C@@H](O)[C@H]1O)c1cccc(C#N)c1 [Compound 193] |  |
| < 10 | < 10 | C[C@H](Nc1c(C#N)c(Cl)nc2c1ccn2[C@@H]1O[C@H](CS(=O)(=O)CP(=O)(O)O)[C@@H](O)[C@H]1O)c1ccc(C#N)cc1 [Compound 198] |  |
| < 10 | < 10 | C[C@H](Nc1c(C#N)c(Cl)nc2c1cnn2[C@@H]1O[C@H](CS(=O)(=O)CP(=O)(O)O)[C@@H](O)[C@H]1O)c1ccccc1F [Compound 199] |  |
| < 10 | < 10 | C[C@H](Nc1c(C#N)c(Cl)nc2c1cnn2[C@@H]1O[C@H](CS(=O)(=O)CP(=O)(O)O)[C@@H](O)[C@H]1O)c1cccc(C#N)c1 [Compound 200] |  |
| < 10 | < 10 | N#Cc1nc2c(ccn2[C@@H]2O[C@H](COP(=O)(O)CP(=O)(O)O)[C@@H](O)[C@H]2O)c(NC2CC3(CC3)C2)c1Cl [Compound 206] |  |
| < 10 | < 10 | CC(C)Nc1c(C#N)c(Cl)nc2c1ccn2[C@@H]1O[C@H](COP(=O)(O)CP(=O)(O)O)[C@@H](O)[C@H]1O [Compound 207] |  |
| < 10 | < 10 | C[C@@H](Nc1c(C#N)c(Cl)nc2c1ncn2[C@@H]1O[C@H](COP(=O)(O)CP(=O)(O)O)[C@@H](O)[C@H]1O)c1ccccc1F [Compound 208, (((((2R,3S,4R,5R)-5-(5-chloro-6-cyano-7-(((R)-1-(2-fluorophenyl)ethyl)amino)-3H-imidazo[4,5-b]pyridin-3-yl)-3,4-dihydroxytetrahydrofuran-2-yl)methoxy)(hydroxy)phosphoryl)methyl)phosphonic acid] |  |
| < 10 | < 10 | N#Cc1c(Cl)nc2c(ncn2[C@@H]2O[C@H](COP(=O)(O)CP(=O)(O)O)[C@@H](O)[C@H]2O)c1NC1CCCC1 [Compound 209] |  |
| < 10 | < 10 | N#Cc1nc2c(ccn2[C@@H]2O[C@H](CS(=O)(=O)CP(=O)(O)O)[C@@H](O)[C@H]2O)c(NC2CCCC2)c1Cl [Compound 210] |  |
| < 10 | < 10 | N#Cc1nc2c(ccn2[C@@H]2O[C@H](COP(=O)(O)CP(=O)(O)O)[C@@H](O)[C@H]2O)c(NC2CCCC2)c1Cl [Compound 211] |  |

| IC50 (Human CD73; [2]) [nM] | IC50 [1] [nM] | SMILES | IC50 (Human CD73) [nM] |
| --- | --- | --- | --- |
| < 10 | < 10 | C[C@H](Nc1c(C#N)c(Cl)nc2c1ccn2[C@@H]1O[C@H](COP(=O)(O)CP(=O)(O)O)[C@@H](O)[C@H]1O)c1ccc(F)cn1 [Compound 212] |  |
| < 10 | < 10 | C[C@@H](Nc1c(C#N)c(Cl)nc2c1ccn2[C@@H]1O[C@H](COP(=O)(O)CP(=O)(O)O)[C@@H](O)[C@H]1O)c1ccc(C#N)cc1 [Compound 213] |  |
| < 10 | < 10 | N#Cc1c(Cl)nc2c(ccn2[C@@H]2O[C@H](COP(=O)(O)CP(=O)(O)O)[C@@H](O)[C@@H]2F)c1NC1CCCC1 [Compound 216] |  |
| < 10 | < 10 | N#Cc1nc2c(ccn2[C@@H]2O[C@H](CS(=O)(=O)CP(=O)(O)O)[C@@H](O)[C@H]2O)c(NC2CC3(CC3)C2)c1Cl [Compound 221] |  |
| < 10 | < 10 | C[C@@H](Nc1c(C#N)c(Cl)nc2c1ccn2[C@@H]1O[C@H](COP(=O)(O)CP(=O)(O)O)[C@@H](O)[C@H]1O)c1ccc(F)cn1 [Compound 222, (((((2R,3S,4R,5R)-5-(6-chloro-5-cyano-4-(((R)-1-(5-fluoropyridin-2-yl)ethyl)amino)-1H-pyrrolo[2,3-b]pyridin-1-yl)-3,4-dihydroxytetrahydrofuran-2-yl)methoxy)(hydroxy)phosphoryl)methyl)phosphonic acid] |  |
| < 10 | < 10 | C[C@H](Nc1c(C#N)c(Cl)nc2c1ccn2[C@@H]1O[C@H](COP(=O)(O)CP(=O)(O)O)[C@@H](O)[C@H]1O)c1ccc(C#N)cc1 [Compound 223] |  |
| < 10 | < 10 | N#Cc1c(Cl)nc2c(ccn2[C@@H]2O[C@H](COP(=O)(O)CP(=O)(O)O)[C@@H](O)[C@H]2O)c1NC1CCOC1 (stereo partly drawn) [Compound 224] |  |
| < 10 | < 10 | C[C@@H](Nc1c(C#N)c(Cl)nc2c1ncn2[C@@H]1O[C@H](COP(=O)(O)CP(=O)(O)O)[C@@H](O)[C@H]1O)c1ccc(F)cn1 [Compound 225] |  |
| < 10 | < 10 | C[C@@H](Nc1c(C#N)c(Cl)nc2c1ncn2[C@@H]1O[C@H](COP(=O)(O)CP(=O)(O)O)[C@@H](O)[C@H]1O)c1ccc(C#N)cc1 [Compound 226] |  |
| < 10 | < 10 | C[C@H](Nc1c(C#N)c(Cl)nc2c1ncn2[C@@H]1O[C@H](COP(=O)(O)CP(=O)(O)O)[C@@H](O)[C@H]1O)c1ccc(C#N)cc1 [Compound 227] |  |
| < 10 | < 10 | N#Cc1c(Cl)nc2c(ccn2[C@@H]2O[C@H](COP(=O)(O)CP(=O)(O)O)[C@@H](O)[C@@H]2F)c1NC1CC(F)(F)C1 [Compound 228] |  |
| < 10 | < 10 | C[C@@H](Nc1c(C#N)c(Cl)nc2c1ccn2[C@@H]1O[C@H](COP(=O)(O)CP(=O)(O)O)[C@@H](O)[C@@H]1F)c1ccc(F)cc1 [Compound 229] |  |
| < 10 | < 10 | C[C@H](Nc1c(C#N)c(Cl)nc2c1ccn2[C@@H]1O[C@H](COP(=O)(O)CP(=O)(O)O)[C@@H](O)[C@@H]1F)c1ccc(C#N)cc1 [Compound 230] |  |
| < 10 | < 10 | C[C@@H](Nc1c(C#N)c(Cl)nc2c1ccn2[C@@H]1O[C@H](COP(=O)(O)CP(=O)(O)O)[C@@H](O)[C@@H]1F)c1ccc(C#N)cc1 [Compound 239] |  |
| < 10 | < 10 | C[C@H](Nc1c(C#N)c(Cl)nc2c1ncn2[C@@H]1O[C@H](COP(=O)(O)CP(=O)(O)O)[C@@H](O)[C@H]1O)c1ccc(F)cn1 [Compound 240] |  |
| < 10 | < 10 | C[C@H](Nc1c(C#N)c(Cl)nc2c1ccn2[C@@H]1O[C@H](COP(=O)(O)CP(=O)(O)O)[C@@H](O)[C@@H]1F)c1ccc(F)cc1 [Compound 241] |  |
| < 10 | < 10 | C[C@H](Nc1c(C#N)c(Cl)nc2c1ncn2[C@@H]1O[C@H](COP(=O)(O)CP(=O)(O)O)[C@@H](O)[C@H]1O)c1ccccc1F [Compound 242] |  |

| SMILES | IC50 (Human CD73; [2]) [nM] | IC50 [1] [nM] | IC50 (Human CD73) [nM] |
| --- | --- | --- | --- |
| C[C@@H](Nc1c(C#N)c(Cl)nc2c1ncn2[C@@H]1O[C@H](COP(=O)(O)CP(=O)(O)O)[C@@H](O)[C@H]1O)c1ccc(F)cc1 [Compound 214] |  | < 10 | < 10 |
| C[C@H](Nc1c(C#N)c(Cl)nc2c1ncn2[C@@H]1O[C@H](COP(=O)(O)CP(=O)(O)O)[C@@H](O)[C@H]1O)c1ccc(F)cc1 [Compound 215, (((((2R,3S,4R,5R)-5-(5-chloro-6-cyano-7-(((S)-1-(4-fluorophenyl)ethyl)amino)-3H-imidazo[4,5-b]pyridin-3-yl)-3,4-dihydroxytetrahydrofuran-2-yl)methoxy)(hydroxy)phosphoryl)methyl)phosphonic acid] |  | < 10 | < 10 |
